Test results reported in publication PMC10347550, “Cyclic Ruthenium-Peptide Conjugates as Integrin-Targeting Phototherapeutic Prodrugs for the Treatment of Brain Tumors” (Journal of the American Chemical Society, 2023).
Read-outs that look alike come from different tables or passages of the source.

Key:
U87MG cells = test: 2D cytotoxicity assay, 24 h DLI & no wash, SRB endpoint; assay type: cell-based, human; settings: for EC50: U87MG 2D monolayer, not washed, SRB at 96 h, n = 3; for PI (EC50,dark/EC50,light): U87MG
Description: (§1) For each complex, two identical plates were prepared, one of which was irradiated with light, while the other was used as a dark control. […] Finally, at t = 96 h, 100 μL of cold trichloroacetic acid (10% w/v) was added to each well to fix the cells, and all plates were then transferred to a 4 °C refrigerator for 48 h before performing an SRB cell quantification endpoint assay.[72] Trichloroacetic acid was first removed and each plate was gently washed with demi water 3–5 times. Then, each well was dried in the air, and 100 μL of 0.6% SRB solution (0.6% w/v in 1% v/v acetic acid/H2O solution) was added into each well where it was allowed to stain for 30 min. Then, the plates were washed 3–5 times using an acetic acid solution (1% v/v). Once the plate was washed it was allowed to dry overnight. Then, 200 μL of 10 mM Tris base buffer was added to each well and the plate was allowed to sit on an orbital shaker for 0.5–16 h. After mixing, the absorbance of each well was determined by an M1000 Tecan Reader, reading at 510 nm. All experiments were conducted in independent biological triplicate. The obtained data were analyzed with Graphpad Prism 5 using the dose–response two-parameter Hill slope equation (eq 1) to obtain the half-maximal effective concentrations EC50 (defined as the concentration of drug that kills 50% of cells, compared to the untreated control). [drawing 1] 1

PC-3 cells = test: as above; assay type: cell-based, human; settings: for EC50: PC-3 2D monolayer, not washed, SRB at 96 h, n = 3
Description: as §1

A549 cells = test: as above; assay type: cell-based, human; settings: for EC50: A549 2D monolayer, not washed, n = 3
Description: as §1

[1] = Dark stability by UV-vis spectroscopy; assay type: physicochemical; settings: 24 h
[2] = test system: ITGAV knockdown U87MG cells (U87MG-kd); test: Cellular Ru uptake by ICP-MS, 2 h; assay type: cell-based, human; settings: 10 μM, dark, normoxia, n = 3
Description: The uptake studies in U87MG and U87MG-kd cell lines were conducted as follows: 2 × 10^5 cells were cultured in 6-well plates for 24 h in Opti-MEM (2 mL), after which cells were incubated with Δ-[1]Cl2 or Δ-[3]Cl2 (10 μM) for 2 h, washed with cold PBS twice, harvested, concentrated in 200 μL of PBS, and counted using trypan blue and a cell counter (Bio-Rad). Finally, cell pellets were collected in 1.5 mL Eppendorf tubes after removing additional PBS by centrifuging at 500g; 0.25 mL of 65% HNO3 was then added to each tube, and all tubes were kept at room temperature (RT) overnight. The cell lysates were transferred to 15 mL centrifuge tubes (Biologix) and filled with 4.75 mL of MilliQ H2O.
The ruthenium concentration was measured in each sample by ICP-MS (NexION 2000, PerkinElmer), providing the metal content in each well in ppb. Combining the cell numbers and Ru uptake, averaging over technical triplicates, the ruthenium uptake values were finally expressed in μg Ru/million cells.

[3] = 1% O2, dark, 24 h treatment, read-out: EC50,dark
[4] = 1% O2, 520 nm, 7.22 mW/cm^2, 13.1 J/cm^2, 30 min, read-out: EC50,light
[5] = 21% O2, dark, 24 h treatment, read-out: EC50,dark
[6] = 21% O2, 520 nm, 10.9 mW/cm^2, 13.1 J/cm^2, 20 min, read-out: EC50,light
[7] = 1% O2, dark, 24 h treatment, SRB at 96 h, read-out: EC50,dark
[8] = 1% O2, 520 nm, 7.22 mW/cm^2, 13.1 J/cm^2, 30 min, SRB at 96 h, read-out: EC50,light
[9] = 21% O2, dark, 24 h treatment, SRB at t = 96 h, read-out: EC50,dark
[10] = 21% O2, 24 h treatment, 520 nm, 10.9 mW/cm^2, 13.1 J/cm^2, 20 min, SRB at 96 h, read-out: EC50,light

Substance	EC50 (U87MG cells; [3])	EC50 (U87MG cells; [4])	EC50 (U87MG cells; [5])	EC50 (U87MG cells; [6])	PI (EC50,dark/EC50,light) (U87MG cells; 1% O2)	EC50 (PC-3 cells; [3])	EC50 (PC-3 cells; [4])	EC50 (PC-3 cells; [5])	EC50 (PC-3 cells; [6])	PI (EC50,dark/EC50,light) (PC-3 cells; PC-3, 1% O2)	PI (EC50,dark/EC50,light) (PC-3 cells; PC-3, 21% O2)	EC50 (A549 cells; [7])	EC50 (A549 cells; [8])	EC50 (A549 cells; [9])	EC50 (A549 cells; [10])	PI (EC50,dark/EC50,light) (A549 cells; A549, 1% O2)	PI (EC50,dark/EC50,light) (A549 cells; A549, 21% O2)	further results
[Ru(Ph2phen)2(κ^S,κ^N-(Ac-MRGDH-NH2))]Cl2 (sidechain bridge or staple) [Δ-[1]Cl2] [cyclic ruthenium-peptide conjugate, Ac-MRGDH-NH2 coordinated via Met S and His N]	42.7 µM	18.8 µM	39.5 µM	3.6 µM	2.3	61.4 µM	50.7 µM	52 µM	6 µM	1.2	9	50.1 µM	17.3 µM	72.5 µM	4.3 µM	2.9	17	PI (EC50,dark/EC50,light) (U87MG cells; 21% O2): 11; dark stability, absorbance spectra ([1]; 50 μM in Opti-MEM containing 2.5% FCS, UV-vis): did not show any variation for 24 h; intensity of the UV-vis spectrum ([1]; 50 μM in Opti-MEM deprived of FCS): gradually decreased, suggesting precipitation; uptake amount compared to U87MG-wt cells [2]: significantly decreased
[Ru(Ph2phen)2(κ^S,κ^N-(Ac-MRGDH-NH2))]Cl2 (sidechain bridge or staple) [Λ-[1]Cl2] [cyclic ruthenium-peptide conjugate, Ac-MRGDH-NH2 coordinated via Met S and His N]	41.4 µM	19 µM	41.6 µM	3.8 µM	2.2	74.3 µM	46.5 µM	66.6 µM	5.3 µM	1.5	12	51 µM	19 µM	66.8 µM	5 µM	2.7	13	
